In patent US8008488B2 (Abbott GmbH & Co. KG, priority 2003, dated 2011):

Assays:
[1] = target: T1, human dopamine D2L receptors (long isoform) (Homo sapiens, UniProt P14416); assay: Dopamine D2L receptor binding, displacement of [125I]-iodospiperone; settings: *Ki(D2L)/Ki(D3), HEK-293 membranes, 0.01 nM [125I]-iodospiperone
T1 construct: expressed in transfected cells
Protocol: (§1) The substance to be tested was dissolved either in methanol/Chremophor® (BASF-AG) or in dimethyl sulfoxide and then diluted with water to the desired concentration.
(§2) Triplicate mixtures were carried out.
The incubation buffer contained 50 mM Tris, 120 mM NaCl, 5 mM KCl, 2 mM CaCl2, 2 mM MgCl2 and 0.1% bovine serum albumin. The buffer was adjusted to pH 7.4 with HCl.
(§3) Measurement and Evaluation:
(§4) After incubation at 25° C. for 60 minutes, the mixtures were filtered under vacuum through Whatman GF/B glass fiber filters using a cell harvester. The filters were transferred by a filter transfer system into scintillation vials. After addition of 4 ml of Ultima Gold® (Packard), the samples were shaken for one hour and then the radioactivity was calculated in a beta counter (Packard, Tricarb 2000 or 2200CA). The cp values were converted into dpm by means of a standard quench series with the aid of the instrument's own program.
(§5) Evaluation of the inhibition plots took place by iterative nonlinear regression analysis using the Statistical Analysis System (SAS) similar to the “LIGAND” program described by Munson and Rodbard.

[2] = target: T2, human dopamine D3 receptors (Homo sapiens, UniProt P35462); assay: Dopamine D3 receptor binding, displacement of [125I]-iodosulpride; settings: membranes from HEK-293 cells with stably expressed human D3 receptors, 0.1 nM [125I]-iodosulpride
T2 construct: expressed in transfected cells
Protocol: as §1, §2
The incubation buffer contained 50 mM Tris, 120 mM NaCl, 5 mM KCl, 2 mM CaCl2, 2 mM MgCl2 and 0.1% bovine serum albumin, 10 μM quinolone, 0.1% ascorbic acid (prepared fresh each day). The buffer was adjusted to pH 7.4 with HCl.
as §3, §4, §5

T1 sequence (P14416 whole entry, canonical isoform): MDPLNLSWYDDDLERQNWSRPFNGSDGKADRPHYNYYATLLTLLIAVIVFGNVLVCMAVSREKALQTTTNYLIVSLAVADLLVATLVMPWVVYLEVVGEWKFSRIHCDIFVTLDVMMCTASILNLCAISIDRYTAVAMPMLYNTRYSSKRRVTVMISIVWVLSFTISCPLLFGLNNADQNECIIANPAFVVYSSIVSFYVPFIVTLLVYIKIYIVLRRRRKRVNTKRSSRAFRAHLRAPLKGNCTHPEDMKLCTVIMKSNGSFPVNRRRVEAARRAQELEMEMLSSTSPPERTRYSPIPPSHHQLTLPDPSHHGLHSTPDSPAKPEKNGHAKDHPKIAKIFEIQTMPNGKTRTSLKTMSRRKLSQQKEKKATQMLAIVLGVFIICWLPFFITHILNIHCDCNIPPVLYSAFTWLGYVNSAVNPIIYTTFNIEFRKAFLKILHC
T2 sequence (P35462 whole entry): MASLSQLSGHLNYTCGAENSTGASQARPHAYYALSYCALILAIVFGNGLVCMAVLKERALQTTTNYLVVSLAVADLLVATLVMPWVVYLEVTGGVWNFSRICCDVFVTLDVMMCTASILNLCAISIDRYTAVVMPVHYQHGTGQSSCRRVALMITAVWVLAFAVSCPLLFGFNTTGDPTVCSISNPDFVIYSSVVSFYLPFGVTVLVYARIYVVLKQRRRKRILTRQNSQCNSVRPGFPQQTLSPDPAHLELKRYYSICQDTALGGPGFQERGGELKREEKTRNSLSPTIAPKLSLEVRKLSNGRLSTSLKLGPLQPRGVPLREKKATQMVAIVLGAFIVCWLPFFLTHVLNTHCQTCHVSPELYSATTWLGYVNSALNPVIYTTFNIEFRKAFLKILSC

Row | Structure (SMILES) | Selectivity D3 vs. D2L* [1] | Ki [2]
1 | Cc1cc(N2CCN(CCCCn3cc(C)c(O)nc3=O)CC2)nc(C(C)(C)C)n1 [Example 29, 1-{4-[4-(2-tert-Butyl-6-methylpyrimidin-4-yl)piperazin-1-yl]butyl}-4-hydroxy-5-methylpyrimidin-2(1H)-one] | 67 | 7.64 nM
2 | CC(C)(C)c1cc(N2CCN(CCCCn3ccc(=O)[nH]c3=O)CC2)nc(C(C)(C)C)n1 [Example 33, 1-{4-[4-(2,6-di-tert-Butylpyrimidin-4-yl)piperazin-1-yl]butyl}pyrimidine-2,4(1H,3H)-dione] | 42 | 0.7 nM
3 | CCCc1cc(N2CCN(CCCCn3ccc(C)nc3=O)CC2)nc(C(C)(C)C)n1.Cl [Example 35, 4-(2-tert-Butyl-6-propylpyrimidin-4-yl)-1-[4-(4-methyl-2-oxopyrimidin-1 (2H)-yl)butyl]piperazin-1-ium chloride] | 116 | 4.96 nM
4 | C/C(=C\CN1CCN(c2cc(C(F)(F)F)nc(C(C)(C)C)n2)CC1)Cn1cc(C)c(=O)[nH]c1=O [Example 36, 1-((2E)-4-{4-[2-tert-Butyl-6-(trifluoromethyl)pyrimidin-4-yl]piperazin-1-yl}-2-methylbut-2-en-1-yl)-5-methylpyrimidine-2,4(1H,3H)-dione] | 209 | 3.82 nM
5 | Cc1cn(CC(C)CCN2CCN(c3cc(C(F)(F)F)nc(C(C)(C)C)n3)CC2)c(=O)[nH]c1=O (stereo not shown) [Example 37, 1-(4-{4-[2-tert-Butyl-6-(trifluoromethyl)pyrimidin-4-yl]piperazin-1-yl}-2-methylbutyl)-5-methylpyrimidine-2,4(1H,3H)-dione] | 126 | 3.24 nM
6 | CCCc1cc(N2CCN(C(C)CCCn3cc(C)c(=O)[nH]c3=O)CC2)nc(C(C)(C)C)n1.Cl (stereo not shown) [Example 38, 4-(2-tert-Butyl-6-propylpyrimidin-4-yl)-1-[1-methyl-4-(5-methyl-2,4-dioxo-3,4-dihydropyrimidin-1 (2H)-yl)butyl]piperazin-1-ium chloride] | 103 | 5.33 nM
7 | Cc1ccn(CCCCN2CCN(c3cc(C(C)C)nc(C(C)(C)C)n3)CC2)c(=O)n1.Cl [Example 39, 4-(2-tert-Butyl-6-isopropylpyrimidin-4-yl)-1-[4-(4-methyl-2-oxopyrimidin-1 (2H)-yl)butyl]piperazin-1-ium chloride] | 66 | 6.09 nM
8 | Cc1cn(CCCCN2CCN(c3cc(C(C)C)nc(C(C)(C)C)n3)CC2)c(=O)[nH]c1=O.Cl [Example 40, 4-(2-tert-Butyl-6-isopropylpyrimidin-4-yl)-1-[4-(5-methyl-2,4-dioxo-3,4-dihydro-2H-pyrimidin-1-yl)-butyl]piperazin-1-ium chloride] | 67 | 2.12 nM
9 | CCCc1cc(N2CCN(CCCCn3ccc(C(F)(F)F)nc3=O)CC2)nc(C(C)(C)C)n1 [Example 41, 1-{4-[4-(2-tert-Butyl-6-propylpyrimidin-4-yl)piperazin-1-yl]butyl}-4-trifluoromethyl-1H-pyrimidin-2-one] | 62 | 5.78 nM
10 | CCCc1cc(N2CCN(CCCCn3ccc(-c4ccc(F)cc4)nc3=O)CC2)nc(C(C)(C)C)n1 [Example 44, 1-{4-[4-(2-tert-Butyl-6-propylpyrimidin-4-yl)piperazin-1-yl]butyl}-4-(4-fluorophenyl)-1H-pyrimidin-2-one] | 158 | 0.63 nM
11 | CC(C)(C)c1nc(N2CCN(CCCCn3ccc(-c4ccc(F)cc4)nc3=O)CC2)cc(C(F)(F)F)n1.Cl [Example 45, 4-(2-tert-Butyl-6-trifluoromethylpyrimidin-4-yl)-1-{4-[4-(4-fluorophenyl)-2-oxo-2H-pyrimidin-1-yl]butyl}piperazin-1-ium chloride] | 37 | 4.99 nM
